The values that follow come from article PMC6624297 (Cell Death & Disease, 2019).

By pIC50 is commonly meant the negative decadic logarithm of the IC50, by convention in mol/L. Low readings indicate a high IC50, high ones a low IC50.

One series addresses EGFR kinase (Homo sapiens, UniProt P00533). The series can be described thus: ADP-Glo kinase assay, EGFR. The following applies: averages from triplicate assays. The series is classed as biochemical. The method, then: The ADP-Glo™ kinase assay (Promega, Madison, WI) was used to screen target compounds for their inhibition effects for BRaf, EGFR kinase. The kinase assay was carried out in a 96-well plate, in a volume of 25 μL HEPES (pH 7.3) solvent containing 1.6 μg/mL EGF, and 20 ng of EGFR kinase, or 50 ng BRaf kinase, and 10 μM ATP (Promega, Madison, WI). […] Reactions in each well were started immediately by adding ATP and kept going for half an hour under 30 °C in a constant temperature incubator (Bluepard, Shanghai, China). After the plate cooled for 5 min at room temperature, 25 μl of ADP-Glo reagent was added into each well to stop the reaction and consume the remaining […] within 40 min. At the end, 50 μl of kinase detection reagent was added into the well and incubated for 1 h to produce a luminescence signal.
For orientation: In ADP-Glo the light output rises with the ADP produced.

Another series concerns GES-1 cell line. The series can be described thus: Selectivity index against GES-1. The series is classed as cell-based. The following applies: SI = CC50/IC50.
For the next series, the system named is H460 cells. The series can be described thus: Cell cycle PI staining FACS, H460. The series is classed as cell-based, human. The following applies: H460, 0.5, 1.0, 1.5 μM, 24 h. The text has this: TS is a crucial enzyme in the DNA synthesis stage. When it is inhibited, first to show cell cycle arrest at G1/S phase. […] Flow cytometry show (Fig. 3), as the concentration of the compound increases, the cells in the G0/G1 phase increase, the cells in the S phase and the G2/M phase decrease. Eventually, the proliferation of cancer cells was inhibited by the G1/S phase arrest of the compound L14e.

Series [1] concerns P53, caspase-3, bcl-2/bax, cleaved caspase-3. The series can be described thus: Western blot apoptotic proteins, A549. The series is classed as cell-based, human. The following applies: A549, 0.5, 1.0, 1.5 μM, 24 h. As for the experimental part:
A549 cells, H460 cells and HUVECs were treated with different concentrations of compound L14e for 24 h. Primary antibodies (100 μL/cm^2): P53(10442-1-AP, Proteintech Group),caspase-3 (19677-1-AP, Proteintech Group), bax (50599-2-lg, Proteintech Group), bcl-2 (12789-1-AP, Proteintech Group), cleaved caspase-3 (25546-1-AP, Proteintech Group), β-actin (60008-1-lg, Proteintech Group), EGFR (ab21074, Abcam), AKT (#2920, Cell Signaling Technology), ERK1/2 (#4370, Cell Signaling Technology), VEGFR-2 (#9698, Cell Signaling Technology), p-EGFR (ab40815, Abcam), p-AKT (#4060, Cell Signaling Technology), p-ERK1/2 (#4695, Cell Signaling Technology), p-VEGFR-2 (#3770, Cell Signaling Technology), and GAPDH (ab181603, Abcam). The cellular levels of proteins were determined by standard Western blotting. Details were given in Supplementary Materials and Methods.
A549 cells, H460 cells and HUVECs were treated with different concentrations of compound L14e for 24 h, and collected to establish their respective treatment groups. […]
Extracted proteins were separated from each other using polyacrylamide electrophoresis on a 10 % gel (Beyotime Biotechnology Company, Shanghai, China) and transferred to a polyvinylidene fluoride (PVDF) membrane. […] Gray values of protein bands were quantitatively analyzed, with the gray value of β-actin(GAPDH) band as the reference.

A further series relates to FVB mice. The series can be described thus: Toxicity test in FVB mice. The following applies: 3 weeks. The series is classed as in vivo. As for the experimental part: Blood was collected from euthanized mice under isoflurane-induced deep anesthesia by cardiac puncture. After allowing blood coagulation at 4 °C, serum was collected by centrifugation at 3000 rpm for 10 min at 4 °C. Analysis of the level of ALT, AST, Glu and CRE in the serum was performed using a veterinary hematology analyzer (Fuji DRI-Chem 3500 s, Fujifilm, Tokyo, Japan) according to the manufacturer’s provided protocols. The histopathological changes in liver, lung, brain, and kidney were evaluated by using HE-stained section of the tissues (This part of the results is in the supplementary document).
Tissues were fixed in 10% neutral-buffered formalin for 24 h, embedded in paraffin, cut into 4-μm-thick sections, deparaffinized with xylene and processed with a graded ethanol series. Next, the sections were stained with HE and were observed using Eclipse Ts2 microscope (Nikon).

Each structure is given as a SMILES string. pIC50: −log10 of the molar value.

Sequence of EGFR kinase (P00533 25-1210): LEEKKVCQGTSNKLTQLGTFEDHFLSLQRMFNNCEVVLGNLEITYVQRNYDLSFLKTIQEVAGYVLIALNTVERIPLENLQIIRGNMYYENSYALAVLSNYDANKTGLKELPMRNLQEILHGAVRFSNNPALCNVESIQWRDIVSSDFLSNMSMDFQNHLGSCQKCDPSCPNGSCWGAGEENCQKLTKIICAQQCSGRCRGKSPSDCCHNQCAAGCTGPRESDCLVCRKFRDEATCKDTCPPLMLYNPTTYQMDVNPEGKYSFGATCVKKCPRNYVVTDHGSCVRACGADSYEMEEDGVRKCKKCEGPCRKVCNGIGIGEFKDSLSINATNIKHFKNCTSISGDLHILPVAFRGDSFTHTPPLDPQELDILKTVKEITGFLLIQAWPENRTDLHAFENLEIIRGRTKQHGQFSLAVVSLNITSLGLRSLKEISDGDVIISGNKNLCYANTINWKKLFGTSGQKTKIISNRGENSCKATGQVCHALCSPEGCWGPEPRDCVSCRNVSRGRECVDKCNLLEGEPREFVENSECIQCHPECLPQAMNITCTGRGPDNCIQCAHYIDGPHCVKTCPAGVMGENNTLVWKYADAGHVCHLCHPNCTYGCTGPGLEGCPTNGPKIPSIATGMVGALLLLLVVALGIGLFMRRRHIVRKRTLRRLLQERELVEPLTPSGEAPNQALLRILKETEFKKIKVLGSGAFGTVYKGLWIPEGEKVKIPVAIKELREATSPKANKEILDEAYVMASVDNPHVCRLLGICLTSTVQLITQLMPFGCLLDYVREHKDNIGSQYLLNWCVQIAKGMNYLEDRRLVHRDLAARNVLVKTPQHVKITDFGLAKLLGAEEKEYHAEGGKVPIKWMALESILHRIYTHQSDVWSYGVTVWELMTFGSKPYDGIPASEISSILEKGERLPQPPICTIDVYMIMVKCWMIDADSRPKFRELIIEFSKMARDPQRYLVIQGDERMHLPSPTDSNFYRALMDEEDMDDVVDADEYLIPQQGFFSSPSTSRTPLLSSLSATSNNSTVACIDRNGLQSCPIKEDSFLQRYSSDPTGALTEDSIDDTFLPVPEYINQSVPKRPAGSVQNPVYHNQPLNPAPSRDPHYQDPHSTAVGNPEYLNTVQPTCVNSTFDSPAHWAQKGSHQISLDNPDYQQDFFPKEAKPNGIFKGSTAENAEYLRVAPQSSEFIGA

Molecule `O=C(Nc1cccc(Cl)c1)Nc1ccccc1NS(=O)(=O)c1c[nH]c(=O)[nH]c1=O` [Compound L14e, N'-(3-chlorophenyl)-2-(2,4-dihydroxypyrimidine-5-sulfonamido)phenyl urea] showed a pIC50 on EGFR kinase of 5.72. For the same molecule, the “SI (Selectivity index) GES-1” value with GES-1 cell line amounted to 8.58. In the series on H460 cells, the “effect on cell cycle” value was “arrest the cell cycle in the G1/S phase”. The “expression of P53, bax, bcl-2, cleaved caspase-3” value in series [1] was “over expression of P53, up-regulation of bax and down-regulation of bcl-2”. In the series with FVB mice (FVB mice, 40, 80, 160 mg/kg), the “changes in body weight compared with control mice” value is listed as “minimal”; the “serum levels of AST, ALT, GLU and creatinine” value is given as “within the reference ranges”; the “toxicity to mice (overall)” value was “minimal toxicity”. Besides, in the series with FVB mice (mice), the “histopathological changes in liver, lung, brain, and kidney (HE staining)” value is recorded as “no visible pathological changes”.
